Assay results: patent publication US20190231768A1, “P[…] TREATING DRUG INDUCED DYSKINESIAS” (PRILENIA THERAPEUTICS DEVELOPMENT LTD., priority 2017, published 2019)
Where two headings read alike, the source gives them in different places.

Columns and labels:
σ1R [1] = target: T1, σ1R (Homo sapiens, UniProt Q99720); conditions: human 67.5 mg bid; based on human PET data and PK profile
6-OHDA-lesioned rat = conditions: 25 μmole/kg (8 mg/kg); cited from earlier work
[2] = system: patients with Huntington's Disease (HD); conditions: 45 mg twice daily (90 mg/day); cited from earlier work
HD patients = conditions: cited from earlier work; for TMS change from baseline vs placebo: HD stage 1 (baseline TFC≥11), post hoc
D2R = D2R (Homo sapiens, UniProt P14416); experiment: in vivo; conditions: read-out: % D2R occupancy
σ1R [3] = target: T1, σ1R; experiment: in vivo; conditions: read-out: % σ1R occupancy
[4] = system: MPTP-lesioned macaques with L-DOPA-induced dyskinesia
Experimental: The study was conducted in two separate experiments. […] Animals: Eight cynomolgus monkeys (Macaca fascicularis, 8-14 years of age, 3.0-4.8 kg, Suzhou Xishan-Zhongke Laboratory Animal Company, PRC) were used in this study. Fresh fruit, primate pellets and water were available ad libitum other than at times of overnight fasting (from 5 pm) prior to days of behavioral assessment. The housing rooms were subject to a 12-hour light-dark cycle (lights on 7 a.m.), 20-25° C. in a room containing only animals of the same sex.
MPTP administration and development of motor complications: Animals received once-daily subcutaneous injection of MPTP (0.2 mg/kg in 0.9% sterile-saline, Sigma-Aldrich, Oakville, ON, Canada) for 8-30 days. A parkinsonian syndrome was then allowed to develop over at least a 90-day period, during which time additional MPTP administrations were given as necessary, until animals reached moderate to marked levels of disability. […] MPTP lesions were allowed to stabilize for a minimum of a further 60-day prior to commencing induction of L-DOPA-induced motor complications. LID, including both choreiform and dystonic dyskinesia, were evoked by chronic L-DOPA treatment (25 mg/kg, Madopar™, Roche, L-DOPA: benserazide, ratio 4:1) for at least 4-months. During this same period animals were acclimatized to the experimental setting, trained to provide blood samples (while restrained in chair) and to receive administration of treatment by oral, intravenous or subcutaneous routes.
The response to this dose of L-DOPA was assessed to ensure stability and reproducibility within each animal on successive L-DOPA administrations.
For both studies, on the day before behavioral observations, food was removed overnight, from 5 p.m. On days of behavioral assessment, treatments were administered to the animals in their home cages. Animals were then transferred to an observation cage for behavioral assessment. […] The effects of treatments on parkinsonian disability, dyskinesia, duration and quality of anti-parkinsonian benefit (on-time) and activity were assessed and analyzed for a period of 6 hours (h).
Assessment of parkinsonian disability, dyskinesia (chorea and dystonia) and activity: Animals were transferred to individual observation cages (1.5×1.0×1.1 m) and their behavior recorded on HD-video. Rating scales for parkinsonism and dyskinesia adapted from their clinical counterparts (UPDRS pt. III and UDysRS respectively) were used to assess recordings via post-hoc analysis by a movement disorders neurologist blinded to treatment. […] Dyskinesia, representative of the maximum of either chorea or dystonia was scored as 0—absent, 1—mild, 2—moderate, 3—marked or 4—severe. Parkinsonian disability and dyskinesia were assessed for 5-min every 10-min, the score given being most representative of each 5-min observation period. Scores were summed for each hour for time-course analyses and across the entire observation period (0-6 h).
The duration of anti-parkinsonian action, on-time, was defined as the number of minutes for which the bradykinesia score was zero. In addition, the duration of on-time associated with dyskinesia of varying severity was calculated as follows. On-time with disabling dyskinesia, ‘bad’-on-time was calculated the number of minutes for which the bradykinesia score was zero while the dyskinesia score was greater than 2. Meanwhile, on-time without disabling dyskinesia, ‘good’-on-time represents the number of minutes for which the bradykinesia score is zero while the dyskinesia score is 2 or less.
Statistical analyses: Data derived from assessment of duration and quality of on-time were plotted as mean±s.e.m. […] Data for measures of parkinsonian disability and dyskinesia were graphed, where appropriate, as median scores alone (time course) or box and whisker plots (cumulated totals). Time course data for parkinsonian disability and dyskinesia were first ranked within each animal across all treatments using Excel's RANKAVG function. […]

adrenergic alpha-1 = conditions: in the micromolar range
Experimental: (§1) NMDA, 5-HT6 and tachykinin NK1 receptors along with the dopamine transporter (DAT), norepinephrine transporter (NET) and serotonin transporter (SERT). The specific ligand binding to the receptors was defined as the difference between the total binding and the nonspecific binding determined in the presence of an excess of unlabeled ligand. IC50 values were determined by a non-linear, least squares regression analysis using MathIQ™ (ID Business Solutions Ltd., UK). […] Hill coefficient (nH), defining the slope of the competitive binding curve, was calculated using MathIQ™.

5-HT6 = 5-HT6 (Homo sapiens, UniProt P50406)
Experimental: as §1

[5] = study 2, 30 mg/kg, cumulated 0-2 h

T1 sequence (Q99720 whole entry): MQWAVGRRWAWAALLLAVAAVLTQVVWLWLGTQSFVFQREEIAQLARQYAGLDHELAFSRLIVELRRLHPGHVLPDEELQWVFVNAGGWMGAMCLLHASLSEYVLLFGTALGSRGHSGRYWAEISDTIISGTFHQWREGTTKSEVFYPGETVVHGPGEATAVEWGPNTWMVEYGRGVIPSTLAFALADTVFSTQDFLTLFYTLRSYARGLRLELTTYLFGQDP
D2R, sequence (P14416 whole entry): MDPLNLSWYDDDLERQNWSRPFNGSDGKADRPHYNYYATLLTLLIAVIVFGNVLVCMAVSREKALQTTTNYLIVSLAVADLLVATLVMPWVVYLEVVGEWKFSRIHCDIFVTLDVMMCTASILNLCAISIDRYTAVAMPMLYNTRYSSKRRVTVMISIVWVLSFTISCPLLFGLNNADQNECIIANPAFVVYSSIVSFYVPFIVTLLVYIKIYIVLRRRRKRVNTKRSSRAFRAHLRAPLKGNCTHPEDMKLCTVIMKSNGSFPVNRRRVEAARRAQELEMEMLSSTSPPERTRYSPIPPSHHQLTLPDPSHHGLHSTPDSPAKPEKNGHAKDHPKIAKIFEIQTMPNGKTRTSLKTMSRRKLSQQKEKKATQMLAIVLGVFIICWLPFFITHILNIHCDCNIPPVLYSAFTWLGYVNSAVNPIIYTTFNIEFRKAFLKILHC
5-HT6, sequence (P50406 whole entry, species assumed): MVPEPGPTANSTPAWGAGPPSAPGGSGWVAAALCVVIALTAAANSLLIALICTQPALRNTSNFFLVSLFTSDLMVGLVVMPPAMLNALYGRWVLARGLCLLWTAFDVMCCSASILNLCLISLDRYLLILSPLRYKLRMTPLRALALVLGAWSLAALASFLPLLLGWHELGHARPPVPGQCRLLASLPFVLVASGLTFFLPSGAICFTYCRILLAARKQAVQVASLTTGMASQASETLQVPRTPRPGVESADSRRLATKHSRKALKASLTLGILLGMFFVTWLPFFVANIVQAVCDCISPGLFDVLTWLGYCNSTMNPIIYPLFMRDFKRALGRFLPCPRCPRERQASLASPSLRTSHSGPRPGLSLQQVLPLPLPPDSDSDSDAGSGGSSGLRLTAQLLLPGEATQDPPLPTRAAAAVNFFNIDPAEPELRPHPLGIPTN

CCCN1CCC(c2cccc(S(C)(=O)=O)c2)CC1 [pridopidine, 4-(3-(methylsulfonyl)phenyl)-1-propylpiperidine]
S1R occupancy (estimated) (σ1R [1]): fully occupy the S1Rs | L-DOPA-induced sensitization of contraversive-rotation (6-OHDA-lesioned rat): decreased | anti-parkinsonian benefit of L-DOPA (6-OHDA-lesioned rat): no decrease | motor function, UHDRS Total Motor Score (TMS) [2]: significantly improved motor function | difference in TFC score decline vs placebo (HD patients; 45 mg bid, 52 weeks, nominal p=0.003): 0.87 (95% confidence interval: 0.29-1.45) | TMS change from baseline vs placebo (HD patients; 45 mg bid, weeks 26 or 52): trend towards improvement | TMS change from baseline vs placebo (HD patients; 112.5 mg bid, 52 weeks): no improvement | TFC decline (HD patients; high dose (>90 mg bid)): failed to show improvement | TMS efficacy compared to placebo or the 45 mg bid dose (HD patients; high doses (≥67.5 bid)): none of the high doses of pridopidine (≥67.5 bid) showed improved efficacy | receptor occupancy at 45 mg (D2R): ~3% | receptor occupancy at 90 mg (D2R): ~30% | receptor occupancy at 150 mg (D2R): > 40% | receptor occupancy at 45 mg (σ1R [3]): > 90% | receptor occupancy at 90 mg (σ1R [3]): > 90% | receptor occupancy at 150 mg (σ1R [3]): > 90% | Dyskinesia (time course), significance cf. LDh-vehicle ([4]; 20 mg/kg + LDh, hr 1): * (*/**/*** represents P < 0.05, P < 0.01 or P < 0.001 cf. vehicle-treatment) | L-DOPA induced Dystonia (time course), significance cf. LDh-vehicle ([4]; 20 mg/kg + LDh, hr 1): * (*/**/*** represents P < 0.05, P < 0.01 or P < 0.001 cf. vehicle-treatment) | Dyskinesia (time course), significance cf. LDh-vehicle ([4]; 30 mg/kg + LDh, hr 1): ** (*/**/*** represents P < 0.05, P < 0.01 or P < 0.001 cf. vehicle-treatment) | L-DOPA induced Dystonia (time course), significance cf. LDh-vehicle ([4]; 30 mg/kg + LDh, hr 1): ** (*/**/*** represents P < 0.05, P < 0.01 or P < 0.001 cf. vehicle-treatment) | Dyskinesia (time course), significance cf. LDh-vehicle ([4]; 30 mg/kg + LDh, hr 2): *** (*/**/*** represents P < 0.05, P < 0.01 or P < 0.001 cf. vehicle-treatment) | L-DOPA induced Dystonia (time course), significance cf. LDh-vehicle ([4]; 30 mg/kg + LDh, hr 2): *** (*/**/*** represents P < 0.05, P < 0.01 or P < 0.001 cf. vehicle-treatment) | L-DOPA induced Dystonia (time course), significance cf. LDh-vehicle ([4]; 30 mg/kg + LDh, hr 3): * (*/**/*** represents P < 0.05, P < 0.01 or P < 0.001 cf. vehicle-treatment) | LID ([4]; MPTP-lesioned NHPs, high-dose): significant and meaningful decrease | LID ([4]; PD NHP model, low doses): ineffective | total duration of on-time or extent of anti-parkinsonian benefit of L-DOPA ([4]; study 1): absence of any change | anti-parkinsonian benefit afforded by L-DOPA ([4]; study 1, 7 mg/kg, first two hours of observation): modest decrease | total duration of on-time ([4]; study 2, 0-6 h): no change | median level of dyskinesia ([4]; study 2, 20 mg/kg, first hour): between moderate and marked | median level of dystonia ([4]; study 2, 20 mg/kg, first hour): between moderate and marked | 'bad' quality on-time ([4]; study 2, 30 mg/kg): 66 min | decrease in 'bad' quality on-time compared to vehicle ([4]; study 2, 30 mg/kg): 60% | median level of dyskinesia [4, 5]: below mild (non-disabling) | median level of dystonia [4, 5]: below mild (non-disabling) | reduction of median levels of dyskinesia compared to LDh-vehicle [4, 5]: 71% | reduction of median levels of dystonia compared to LDh-vehicle [4, 5]: 72% | median level of dyskinesia ([4]; study 2, 30 mg/kg, first and second hours): mild to moderate | median level of dystonia ([4]; study 2, 30 mg/kg, first to third hours): mild to moderate | proportion of on-time of 'good' quality cf. LDh-vehicle ([4]; study 2, any dose): no difference | binding (adrenergic alpha-1): low-affinity binding | binding (5-HT6): no observed binding
